Measurements from patent US20080167319A1, “7-(4-(4-[3-CHLORO-2-(TRIFLUOROMETHYL)PHENYL]PIPERAZIN-1-YL)BUTOXY)-[1,8]-NAPHTHYRIDIN-2(1H)-ONE” (Pfizer Inc., priority 2007, published 2008).
pKi: −log10 of the molar value.

Tests used:
[1] = molecular target: T1, h5-HT1A (CHO p-5 cells) (Homo sapiens, UniProt P08908); test: [3H]Thymidine Uptake Assay for Serotonin 1A Intrinsic Activity; format: cell-based; settings: relative to 1 μM (+)-8-OH-DPAT classified as 100% response; HCl salt tested
T1 construct: expressed in transfected cells
T1 sequence (P08908 1-422): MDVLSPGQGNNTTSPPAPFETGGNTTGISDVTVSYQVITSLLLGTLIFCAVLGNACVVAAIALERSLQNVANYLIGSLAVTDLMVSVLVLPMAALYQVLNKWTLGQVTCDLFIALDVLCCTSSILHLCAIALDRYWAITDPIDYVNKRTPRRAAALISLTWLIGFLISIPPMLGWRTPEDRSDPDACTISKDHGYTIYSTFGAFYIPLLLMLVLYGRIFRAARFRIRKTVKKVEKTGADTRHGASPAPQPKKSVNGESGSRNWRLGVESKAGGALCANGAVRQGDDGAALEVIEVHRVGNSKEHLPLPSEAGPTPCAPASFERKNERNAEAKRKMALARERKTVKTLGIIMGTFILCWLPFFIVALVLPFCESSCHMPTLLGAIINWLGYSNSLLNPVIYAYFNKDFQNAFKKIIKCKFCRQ
Protocol: 4) [^3H]Thymidine Uptake Assay for Serotonin 1A Intrinsic Activity
CHO p-5 cells transfected with h5-HT1A cDNA were seeded into 96-well plates at a density of approximately […] cells/well. These were grown for 3 days at 37° C. in an incubator with alpha minimum essential medium (αMEM) and 10% fetal calf serum containing penicillin (100 U/mL) and streptomycin (100 μg/mL). The wells were then rinsed by washing twice with 200 μL of serum-free media, and 90 μL serum-free media was added to each well. The plates were incubated for two to three hours, then 10 μL of serum-containing media (positive control), vehicle (10 μL DMSO), negative control (10 μL of an antagonist in DMSO) or different concentrations of the test compound and standards (10 μL DMSO solution) in serum-free media were added to appropriate wells. The plates were incubated for 18 hrs. Then [^3H]thymidine was added (0.5 μCi/well in 10 μL of serum-free media) after which the plates were returned to the incubator. Four hours later, trypsin (0.25%) was added (100 μL/well), and plates were returned again to the incubator. The assay was terminated 1 hr later by rapid filtration through Whatman GF/C glass fiber filters. […] Radioactivity remaining on the filters was estimated with a Wallac 1205 Betaplate liquid scintillation counter (50% efficiency). […]

[2] = molecular target: T2, D2 receptor (CHO pro-5 cells) (Homo sapiens, UniProt P14416); test: [3H]Thymidine Uptake Assay for Dopamine D2 Intrinsic Activity; format: cell-based; settings: relative to 1 μM Quinpirole classified as 100% intrinsic activity; HCl salt tested
T2 construct: expressed in transfected cells; host or cells: CHO pro-5 cells
Protocol: 3) [^3H]Thymidine Uptake Assay for Dopamine D2 Intrinsic Activity
The assay was conducted using CHO pro-5 cells containing the D2 receptor and conventional 96-well sterile plates. Serum was removed from the cells by washing the cells twice with 200 μL of serum-free media. 90 μL serum-free media was added to each well. The plates ware incubated for two to three hours. 10 μL of serum-containing media, as a positive control, vehicle (serum-free media), antagonist control (haloperidol), or the test compound, and standards (10 μL of a 10 μM solution for a final concentration of 1 μM) in serum-free media were added to wells. The plates were returned to the incubator. Eighteen hours later [^3H]thymidine was added (0.5 μCi/well in 10 μL of serum-free media) and the plates were returned to the incubator. Four hours later trypsin (0.25%) was added (100 μL/well). The plates were returned to the incubator, once again. One hour later the assay was terminated by rapid filtration through Whatman GF/C glass fiber filters. Filters were washed four times with […] of 50 mM Tris-HCl pH 7.0 buffer, for example, using a Brandel MLR-96T cell harvester. Radioactivity remaining on the filters was estimated with a Wallac 1205 Betaplate liquid scintillation counter (50% efficiency). Intrinsic activity is defined as total uptake (1 μM Quinpirole) minus serum-free media (no uptake). […]

[3] = molecular target: T3, Dopamine D2 Receptor (hD2L) (Homo sapiens, UniProt P14416); test: Dopamine D2 Receptor Binding Assay ([3H]spiperone, CHO-hD2L membranes); settings: [3H]spiperone 0.4 nM, HCl salt tested
T3 construct: expressed in transfected cells; host or cells: CHO cells (CHO-hD2L)
Protocol: 1) Dopamine D2 Receptor Binding Assay
[^3H]Spiperone binding to a membrane preparation from CHO-hD2L cells was carried out in 250 μL of 50 mM Tris-HCl buffer containing 100 mM NaCl, 1 mM MgCl2 and 1% DMSO at pH 7.4. Duplicate samples containing (in order of addition) the test compound, 0.4 nM [^3H]spiperone and approximately 12 μg protein were incubated for 120 min at room temperature. Bound radioligand was separated by rapid filtration under reduced pressure through Whatman GF/B glass fiber filters previously treated with 0.3% polyethyleneimine (PEI). Radioactivity retained on the filter was determined by liquid scintillation spectrophotometry. Specific binding determined in the presence of 1 mM haloperidol was 95%.

[4] = molecular target: T4, Serotonin 1A (5-HT1A) Receptor (Homo sapiens, UniProt P08908); test: Serotonin 1A (5-HT1A) Receptor Binding Assay ([3H]8-OH-DPAT, transfected HeLa membranes); settings: [3H]8-OH-DPAT 2.0 nM, transfected HeLa cell membranes; HCl salt tested
T4 construct: expressed in transfected cells; host or cells: HeLa cells
T4 sequence (P08908 1-422): T1 sequence (P08908 1-422)
Protocol: 2) Serotonin 1A (5-HT1A) Receptor Binding Assay
The assay was conducted in membranes prepared from HeLa cells transfected with the cDNA for […] receptors using [^3H] 8-hydroxy-2-(di-n-propylamino)-tetraline ([^3H] 8-OH-DPAT, final concentration 2.0 nM) as reference […] receptor agonist. Assay buffer consisted of 50 mM Tris-HCl with 10 mM MgSO4, 0.5 mM EDTA and 0.1% ascorbic acid, at pH 7.4 (250 μL total volume). Triplicate samples containing (in order of addition) the test compound, 100× in 100% DMSO, [^3H] 8-OH-DPAT and cell homogenate was incubated for 2 hr at room temperature. Experiments were terminated by rapid filtration through Whatman GF/B glass fiber filters soaked in assay buffer with 0.3% PEI by washing three timnes with 1 mL of wash buffer (50 mM Tris-HCl, pH 7.4) using a Brandel MLR-96T cell harvester. Specific binding (85%) was determined in the presence of 10 μM 8-OH-DPAT.

T2 sequence (P14416 whole entry): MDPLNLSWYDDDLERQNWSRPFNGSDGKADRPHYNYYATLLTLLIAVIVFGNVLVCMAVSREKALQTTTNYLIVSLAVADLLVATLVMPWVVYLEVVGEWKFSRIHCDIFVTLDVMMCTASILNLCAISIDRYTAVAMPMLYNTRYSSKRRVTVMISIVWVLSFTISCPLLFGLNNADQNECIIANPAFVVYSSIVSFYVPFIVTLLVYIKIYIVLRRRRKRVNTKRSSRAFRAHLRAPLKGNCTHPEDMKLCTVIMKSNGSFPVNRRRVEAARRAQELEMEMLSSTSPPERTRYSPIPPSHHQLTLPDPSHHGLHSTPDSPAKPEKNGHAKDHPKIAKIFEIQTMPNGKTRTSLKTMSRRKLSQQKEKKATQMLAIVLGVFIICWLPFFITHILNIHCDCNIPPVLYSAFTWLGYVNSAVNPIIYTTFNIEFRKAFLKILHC
T3 sequence (P14416 whole entry): as above

In the case of `O=c1ccc2ccc(OCCCCN3CCN(c4cccc(Cl)c4C(F)(F)F)CC3)nc2[nH]1` [compound of formula (I), 7-(4-{4-[3-chloro-2-(trifluoromethyl)phenyl]piperazine-1-yl}butoxy)-[1,8]-naphthyridin-2(1H)-one], the Emax [1] was 90%, the Emax [2] was 55% and the pKi [3] was 8.41. It also gave a pKi [4] of 8.40.
